Measured values: patent publication US20240043439A1, “COMPOUNDS AS C5AR INHIBITORS” (Kira Pharmaceuticals (Suzhou) Ltd., priority 2020, published 2024)

How the values were obtained:
[1] = biological target: human C5a receptor (C5aR) (Homo sapiens (Human), UniProt P21730); assay: Inhibition of C5a-C5aR binding (biotinylated human C5a, U937/C5aR cells, FACS)
Description: U937 cells were originally obtained from the American Type Culture Collection (ATCC) and transfected with human C5a receptor (C5aR). U937/C5aR cells were cultured at 37° C., 5% CO2 in RPMI1640 (Gibco) supplemented with 10% FBS (Gibco) and 350 µg/ml Geneticin (Gibco) and passaged every 3 days to maintain the density range from […] to 2×10^6 cells/ml.
Human C5a biotinylation was performed according to the procedure provided by manufacturer (Thermo Scientific, A39257). 10 mM solution of Sulfo-NHS-LC-Biotin was prepared by adding 180μl ultrapure H2O to the 1 mg vial immediately. 12 μl 10 mM biotin reagent was added to […] human C5a solution, gently pipetted for 3 seconds, and incubated on ice for 2 hours. Amicon ultra-0.5 centrifuge filter device (Millipore, UFC5003BK) was pre-rinsed with Milli-Q H2O, centrifuged at 14000 g for 5 min immediately before use. Up to […] sample (diluted by PBS) was added to the device and capped. The device was spinned at 14000 g for approximately 5 min. 250 μl PBS was added to the filter device, spinned at 14000 g for 5 min, and repeatedly washed 6 times. The filter device was separated from the microcentrifuge tube and placed upside down in a clean microcentrifuge tube, spinned for 2 min at 1000 g to transfer the concentrated sample from the device to the tube.
U937/C5aR cells were collected and washed twice by PBS, cells were suspended in PBS+0.1% BSA buffer at the density of 3×10^6 cells/ml. 100 μl cell suspension was added to a 96 well microplate. 50 μl compound diluted in assay buffer and 50 μl biotinylated ligand human C5a (30 nM) were added to corresponding wells in order and the plate was incubated on ice for 120 min and then centrifuged at 1000 rpm for 3-5 min at 4° C. Supernatant was removed and cells were washed by pre-cold PBS twice. 100 μl FITC conjugated streptavidin was added to cells, incubated on ice for another 30 min, and then centrifuged at 1000 rpm for 3-5 min at 4° C. Supernatant was removed and cells were washed by pre-cold PBS twice. 150 μl PBS was added to suspend the cells and signals were detected by FACS (Beckman, Cytoflex).

C5aR = C5aR (Homo sapiens (Human), UniProt P21730); assay: Calcium mobilization (U937/C5aR or HEK293/C5aR cells, FLIPR); assay type: cell-based; conditions: agonist human C5a at EC80, FLIPR
Chain of C5aR (P21730 whole entry): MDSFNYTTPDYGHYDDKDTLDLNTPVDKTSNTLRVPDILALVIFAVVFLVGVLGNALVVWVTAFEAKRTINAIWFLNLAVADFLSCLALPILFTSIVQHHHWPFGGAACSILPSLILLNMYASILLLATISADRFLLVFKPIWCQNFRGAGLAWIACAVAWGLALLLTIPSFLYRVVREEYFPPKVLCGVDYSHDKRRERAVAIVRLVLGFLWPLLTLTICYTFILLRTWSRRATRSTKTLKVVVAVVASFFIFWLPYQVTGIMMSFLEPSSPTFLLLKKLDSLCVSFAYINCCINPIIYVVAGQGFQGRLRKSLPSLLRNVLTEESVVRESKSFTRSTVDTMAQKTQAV
Description: U937/C5aR cells or HEK293/C5aR cells were washed by PBS and suspended in growth media at the density of 1×10^6 cells/ml. […] to the 384-well plate and culture for overnight. Transfer 250 nl compound solution to the cell plate using Echo, incubate for 60 min. Cells were added with Fluo-4 Direct™ dye and incubate for 50 min at 37° C. 5% CO2 and 10 m at room temperature. Place the cell plate into […] (Molecular Devices). Transfer 10 μl of 5-fold EC80 concentrations of agonist human C5a to the cell plates.

Chain of human C5a receptor (C5aR) (P21730 whole entry): as above

SMILES | IC50 [1] [nM] | IC50 (C5aR) [nM]
Cc1ccc(NC(=O)[C@H]2CCCN(S(=O)(=O)c3ccc4ccccc4c3)[C@H]2c2ccc(NC3CCCC3)cc2)cc1C(F)(F)F [Compound 32, (2R,3S)-2-(4-(cyclopentylamino)phenyl)-N-(4-methyl-3-(trifluoromethyl)phenyl)-1-(naphthalen-2-ylsulfonyl)piperidine-3-carboxamide] | 2000 to 5000 | 2000 to 10000
Cc1cccc(F)c1C(=O)N1C2COC[C@@H]2C[C@H](C(=O)Nc2ccc(N(C)C)cc2)[C@@H]1c1ccc(NC2CCOCC2)cc1 (mixture of isomers) [Compound 136, cis-N-(4-(dimethylamino)phenyl)-1-(2-fluoro-6-methylbenzoyl)-2-(4-((tetrahydro-2H-pyran-4-yl)amino)phenyl)octahydrofuro[3,4-b]pyridine-3-carboxamide] | 2000 to 5000 | 2000 to 10000
Cc1ccc(NC(=O)[C@H]2CCCN(S(=O)(=O)c3c(Cl)cccc3Cl)[C@H]2c2ccc(NC3CCCC3)cc2)cc1C(F)(F)F [Compound 20, (2R,3S)-2-(4-(cyclopentylamino)phenyl)-1-((2,6-dichlorophenyl)sulfonyl)-N-(4-methyl-3-(trifluoromethyl)phenyl)piperidine-3-carboxamide] | 2000 to 5000 | > 10000
Cc1ccc(NC(=O)[C@H]2CCCN(S(=O)(=O)c3ccccc3[N+](=O)[O-])[C@H]2c2ccc(NC3CCCC3)cc2)cc1C(F)(F)F [Compound 14, (2R,3S)-2-(4-(cyclopentylamino)phenyl)-N-(4-methyl-3-(trifluoromethyl)phenyl)-1-((2-nitrophenyl)sulfonyl)piperidine-3-carboxamide] | 2000 to 5000 | 2000 to 10000
Cc1cccc(F)c1C(=O)N1[C@@H]2CCC[C@@H]2C[C@H](C(=O)Nc2ccc(Cl)c(C(F)(F)F)c2)[C@@H]1c1ccc(NC2CCCC2)cc1 (racemic) [Compound 60, cis-N-(4-chloro-3-(trifluoromethyl)phenyl)-2-(4-(cyclopentylamino)phenyl)-1-(2-fluoro-6-methylbenzoyl)octahydro-1H-cyclopenta[b]pyridine-3-carboxamide] | 2000 to 5000 | 50 to 500
Cc1cccc(F)c1C(=O)N1C2CCC[C@@H]2C[C@H](C(=O)Nc2ccc3ncn(C)c3c2)[C@@H]1c1ccc(NC2CCCC2)cc1 (mixture of isomers) [Compound 74, cis-2-(4-(cyclopentylamino)phenyl)-1-(2-fluoro-6-methylbenzoyl)-N-(1-methyl-1H-benzo[d]imidazol-6-yl)octahydro-1H-cyclopenta[b]pyridine-3-carboxamide] | 2000 to 5000 | > 10000
Cc1cccc(F)c1C(=O)N1[C@@H]2CCC[C@@H]2C[C@H](C(=O)Nc2ccc(NC=O)c(O)c2)[C@@H]1c1ccc(NC2CCCC2)cc1 (racemic) [Compound 68, cis-2-(4-(cyclopentylamino)phenyl)-1-(2-fluoro-6-methylbenzoyl)-N-(4-formamido-3-hydroxyphenyl)octahydro-1H-cyclopenta[b]pyridine-3-carboxamide] | 2000 to 5000 | 500 to 2000
Cc1cc(C)c(S(=O)(=O)N2CCC[C@H](C(=O)Nc3ccc(C)c(C(F)(F)F)c3)[C@@H]2c2ccc(NC3CCCC3)cc2)c(C)c1 [Compound 13, (2R,3S)-2-(4-(cyclopentylamino)phenyl)-1-(mesitylsulfonyl)-N-(4-methyl-3-(trifluoromethyl)phenyl)piperidine-3-carboxamide] | 2000 to 5000 | 2000 to 10000
Cc1ccc(NC(=O)[C@H]2CCCN(S(=O)(=O)c3cccc(Cl)c3C)[C@H]2c2ccc(NC3CCCC3)cc2)cc1C(F)(F)F [Compound 16, (2R,3S)-1-((3-chloro-2-methylphenyl)sulfonyl)-2-(4-(cyclopentylamino)phenyl)-N-(4-methyl-3-(trifluoromethyl)phenyl)piperidine-3-carboxamide] | 2000 to 5000 | > 10000
Cc1ccc(NC(=O)[C@H]2CCCN(c3ccnc(Cl)n3)[C@H]2c2ccc(NC3CCCC3)cc2)cc1C(F)(F)F [Compound 2, (2R,3S)-1-(2-chloropyrimidin-4-yl)-2-(4-(cyclopentylamino)phenyl)-N-(4-methyl-3-(trifluoromethyl)phenyl)piperidine-3-carboxamide] | 2000 to 5000 | 2000 to 10000
Cc1cccc(F)c1C(=O)N1[C@@H]2COC[C@@H]2C[C@H](C(=O)Nc2ccc3cnn(C)c3c2)[C@@H]1c1ccc(NC2CCCC2)cc1 [Compound 122, (2R,3S,4aR,7aS)-2-(4-(cyclopentylamino)phenyl)-1-(2-fluoro-6-methylbenzoyl)-N-(1-methyl-1H-indazol-6-yl)octahydrofuro[3,4-b]pyridine-3-carboxamide] | 2000 to 5000 | 
Cc1cccc(F)c1C(=O)N1[C@@H]2CCC[C@@H]2C[C@H](C(=O)Nc2ccc3c(cnn3Cc3cccnc3)c2)[C@@H]1c1ccc(NC2CCOCC2)cc1 [Compound 107, (2R,3S,4aR,7aR)-1-(2-fluoro-6-methylbenzoyl)-N-(1-(pyridin-3-ylmethyl)-1H-indazol-5-yl)-2-(4-((tetrahydro-2H-pyran-4-yl)amino)phenyl)octahydro-1H-cyclopenta[b]pyridine-3-carboxamide] | 2000 to 5000 | 
Cc1cccc(F)c1C(=O)N1[C@@H]2COC[C@@H]2C[C@H](C(=O)Nc2ccc3c(cnn3C)c2)[C@@H]1c1ccc(CN2CCOCC2(C)C)cc1 [Compound 142, (2R,3S,4aR,7aS)-2-(4-((3,3-dimethylmorpholino)methyl)phenyl)-1-(2-fluoro-6-methylbenzoyl)-N-(1-methyl-1H-indazol-5-yl)octahydrofuro[3,4-b]pyridine-3-carboxamide] | 2000 to 5000 | 

The remaining lines, values ahead:

IC50 [1] [nM] | IC50 (C5aR) [nM] | SMILES
500 to 2000 | 2000 to 10000 | Cc1ccc(NC(=O)[C@H]2CCCN(c3nccc4cccnc34)[C@H]2c2ccc(NC3CCCC3)cc2)cc1C(F)(F)F [Compound 6, (2R,3S)-2-(4-(cyclopentylamino)phenyl)-N-(4-methyl-3-(trifluoromethyl)phenyl)-1-(1,7-naphthyridin-8-yl)piperidine-3-carboxamide]
2000 to 5000 | 2000 to 10000 | Cc1ccc(NC(=O)[C@H]2CCCN(S(=O)(=O)c3c(C)noc3C)[C@H]2c2ccc(NC3CCCC3)cc2)cc1C(F)(F)F [Compound 8, (2R,3S)-2-(4-(cyclopentylamino)phenyl)-1-((3,5-dimethylisoxazol-4-yl)sulfonyl)-N-(4-methyl-3-(trifluoromethyl)phenyl)piperidine-3-carboxamide]
2000 to 5000 | 2000 to 10000 | Cc1ccc(NC(=O)[C@H]2CCCN(c3ccncn3)[C@H]2c2ccc(NC3CCCC3)cc2)cc1C(F)(F)F [Compound 4, (2R,3S)-2-(4-(cyclopentylamino)phenyl)-N-(4-methyl-3-(trifluoromethyl)phenyl)-1-(pyrimidin-4-yl)piperidine-3-carboxamide]
500 to 2000 | 2000 to 10000 | Cc1cccc(F)c1C(=O)N1[C@@H]2CCC[C@@H]2C[C@H](C(=O)Nc2ccc(Cl)c(Cl)c2)[C@@H]1c1ccc(NC2CCCC2)cc1 (racemic) [Compound 64, cis-2-(4-(cyclopentylamino)phenyl)-N-(3,4-dichlorophenyl)-1-(2-fluoro-6-methylbenzoyl)octahydro-1H-cyclopenta[b]pyridine-3-carboxamide]
< 50 | 50 to 500 | Cc1cccc(F)c1C(=O)N1C2CCC[C@@H]2C[C@H](C(=O)Nc2cccc(F)c2)[C@@H]1c1ccc(NC2CCCC2)cc1 (mixture of isomers) [Compound 56, cis-2-(4-(cyclopentylamino)phenyl)-1-(2-fluoro-6-methylbenzoyl)-N-(3-fluorophenyl)octahydro-1H-cyclopenta[b]pyridine-3-carboxamide]
500 to 2000 | 2000 to 10000 | Cc1ccc(NC(=O)[C@H]2CCCN(S(=O)(=O)c3c(C)cccc3C)[C@H]2c2ccc(NC3CCCC3)cc2)cc1C(F)(F)F [Compound 11, (2R,3S)-2-(4-(cyclopentylamino)phenyl)-1-((2,6-dimethylphenyl)sulfonyl)-N-(4-methyl-3-(trifluoromethyl)phenyl)piperidine-3-carboxamide]
500 to 2000 |  | Cc1cccc(F)c1C(=O)N1[C@@H]2CCC[C@@H]2C[C@H](C(=O)Nc2ccc3ncccc3c2)[C@@H]1c1ccc(NC2CCOCC2)cc1 [Compound 95, (2R,3S,4aR,7aR)-1-(2-fluoro-6-methylbenzoyl)-N-(quinolin-6-yl)-2-(4-((tetrahydro-2H-pyran-4-yl)amino)phenyl)octahydro-1H-cyclopenta[b]pyridine-3-carboxamide]
